In US9604944B2, “Arylpiperazine derivatives and methods of utilizing same” (REVIVA PHARMACEUTICALS, INC., priority 2009, dated 2017) one finds IC50 and Ki data, which are given here for 2 compounds.

Assay [1] deals with serotonin 5-HT2A receptor (Human Cortex) (Homo sapiens (Human), UniProt P28223). The assay can be described thus: Serotonin, 5HT2A (human) binding assay. To be noted: radioligand [3H]-Ketanserin. The procedure: Serotonin, 5HT2A (human) binding assay
Materials and Methods: • Receptor Source: Human Cortex • Radioligand: [^3H]-Ketanserin (60-90 Ci/mmol) • Control Compound: Ketanserin • Incubation Conditions: The reactions were carried out in 50 mM TRIS-HCl (pH 7.6) at room temperature for 90 minutes. The reaction was terminated by rapid vacuum filtration onto glass fiber filters. Radioactivity trapped onto the filters was determined and compared to control values in order to ascertain any interactions of test compounds with the serotonin-5HT2A binding site (Literature Reference: Leysen, J. E. et al. Mol. Pharmacol. 1982, 21, 301-314; Martin, G. R. and Humphrey, P. P. A. Neuropharmacol. 1994, 33(3/4), 261-273.)
(§1) The radioligand binding assays for dopamine-D2S, serotonin-5HT1A and serotonin-5HT2A were carried out at six different concentrations and the test concentrations were 0.5 nM, 1 nM, 10 nm, 100 nM, 300 nM and 1000 nM.

Assay [2] has as its target dopamine D2S receptor (human recombinant expressed in CHO cells) (Homo sapiens (Human), UniProt P14416). Briefly: Dopamine, D2S (human recombinant) binding assay. The conditions noted are these: radioligand [3H]Spiperone. The procedure:
Dopamine, D2S (human recombinant) binding assay
Materials and Methods: • Receptor Source: Human recombinant expressed in CHO cells • Radioligand: [^3H]Spiperone (20-60 Ci/mmol) • Control Compound: Haloperidol • Incubation Conditions: The reactions were carried out in 50 mM TRIS-HCl (pH 7.4) containing 120 mM NaCl, 5 mM KCl, 5 mM MgCl2, 1 mM EDTA for 60 minutes at 25 C. The reaction was terminated by rapid vacuum filtration onto glass fiber filters. Radioactivity trapped onto the filters was determined and compared to control values in order to ascertain any interactions of test compounds with the cloned dopamine—D2 short binding site (Literature Reference: Jarvis, K. R. et al. Journal of Receptor Research 1993, 13(1-4), 573-590; Gundlach, A. L. et al. Life Sciences 1984, 35, 1981-1988.)
as §1

For assay [3], the target named is serotonin 5-HT1A receptor (human recombinant expressed in HEK-293 cells) (Homo sapiens (Human), UniProt P08908). The assay can be described thus: Serotonin, 5HT1A (human recombinant) binding assay. The conditions noted are these: radioligand [3H]-8-OH-DPAT; human recombinant in HEK-293 cells. The procedure: Serotonin, 5HT1A (human recombinant) binding assay
serotonin 5-HT1A receptor (human recombinant expressed in HEK-293 cells), sequence (P08908 whole entry): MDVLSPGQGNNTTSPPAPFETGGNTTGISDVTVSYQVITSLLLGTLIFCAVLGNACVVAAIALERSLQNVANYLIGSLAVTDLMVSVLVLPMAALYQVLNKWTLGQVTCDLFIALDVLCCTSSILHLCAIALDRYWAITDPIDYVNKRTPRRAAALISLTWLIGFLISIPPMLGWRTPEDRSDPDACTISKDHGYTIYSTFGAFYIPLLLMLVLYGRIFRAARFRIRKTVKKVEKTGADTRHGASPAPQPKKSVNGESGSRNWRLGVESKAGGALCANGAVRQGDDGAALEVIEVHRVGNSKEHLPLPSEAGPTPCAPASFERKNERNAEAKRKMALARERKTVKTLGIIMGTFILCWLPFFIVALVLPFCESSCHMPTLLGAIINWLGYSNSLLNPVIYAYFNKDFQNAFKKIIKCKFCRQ
Materials and Methods: • Receptor Source: Human recombinant expressed in HEK-293 cells • Radioligand: [^3H]-8-OH-DPAT (221 Ci/mmol) • Control Compound: 8-OH-DPAT • Incubation Conditions: The reactions were carried out in 50 mM TRIS-HCl (pH 7.4) containing 10 mM MgSO4, 0.5 mM EDTA and 0.1% Ascorbic acid at room temperature for 1 hour. The reaction was terminated by rapid vacuum filtration onto glass fiber filters. Radioactivity trapped onto the filters was determined and compared to control values in order to ascertain any interactions of test compounds with the cloned serotonin—5HT1A binding site (Literature Reference: Hoyer, D. et al. Eur. Journal Pharmacol. 1985, 118, 13-23; Schoeffter, P. and Hoyer, D. Naunyn-Schmiedeberg's Arch. Pharmac. 1989, 340, 135-138)
as §1

Counter-ions that a name gives are not always drawn.

serotonin 5-HT2A receptor (Human Cortex), sequence (P28223 whole entry): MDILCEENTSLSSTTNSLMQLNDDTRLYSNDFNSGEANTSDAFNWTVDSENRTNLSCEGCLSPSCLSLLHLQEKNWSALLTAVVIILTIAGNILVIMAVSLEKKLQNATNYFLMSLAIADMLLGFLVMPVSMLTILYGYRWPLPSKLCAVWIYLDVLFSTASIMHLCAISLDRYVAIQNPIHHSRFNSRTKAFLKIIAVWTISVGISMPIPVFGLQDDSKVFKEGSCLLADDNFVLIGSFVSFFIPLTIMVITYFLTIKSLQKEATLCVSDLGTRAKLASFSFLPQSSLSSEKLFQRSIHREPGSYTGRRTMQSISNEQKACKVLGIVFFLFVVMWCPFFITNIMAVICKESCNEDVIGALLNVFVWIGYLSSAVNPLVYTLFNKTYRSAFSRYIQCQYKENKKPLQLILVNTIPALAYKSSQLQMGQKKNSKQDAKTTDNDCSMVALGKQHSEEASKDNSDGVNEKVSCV
dopamine D2S receptor (human recombinant expressed in CHO cells), sequence (P14416 other isoform, or with tags, fused parts or gaps): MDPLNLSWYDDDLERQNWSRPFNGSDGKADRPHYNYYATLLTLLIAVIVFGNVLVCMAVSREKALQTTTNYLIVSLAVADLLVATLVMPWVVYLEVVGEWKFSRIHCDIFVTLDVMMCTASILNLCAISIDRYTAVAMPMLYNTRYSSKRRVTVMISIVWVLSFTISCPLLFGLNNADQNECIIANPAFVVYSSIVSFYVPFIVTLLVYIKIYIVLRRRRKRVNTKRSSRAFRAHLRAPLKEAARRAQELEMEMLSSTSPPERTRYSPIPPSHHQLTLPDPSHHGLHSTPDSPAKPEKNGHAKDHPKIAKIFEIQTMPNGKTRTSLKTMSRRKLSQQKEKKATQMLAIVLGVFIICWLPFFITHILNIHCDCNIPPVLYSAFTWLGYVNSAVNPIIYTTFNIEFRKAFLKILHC

Turning to `COc1ccccc1N1CCN(CCCCOc2ccc3c(c2)NC(=O)CO3)CC1` [Compound 15a, 6-(4-(4-(2-Methoxyphenyl)piperazin-1-yl)butoxy)-2H-benzo[b][1,4]oxazin-3(4H)-one hydrochloride], the IC50 in assay [1] is 262 nM; in assay [2], 0.98 nM; in assay [3] it was 0.97 nM. The inhibition constant (Ki) is 118 nM in assay [1], 0.3 nM in assay [2] and 0.65 nM in assay [3].
In assay [1], `O=C1COc2ccc(OCCCCN3CCN(c4cccc(Cl)c4Cl)CC3)cc2N1` [Compound 15b, 6-(4-(4-(2,3-Dichlorophenyl)piperazin-1-yl)butoxy)-2H-benzo[b][1,4]oxazin-3(4H)-one hydrochloride] returned a 50% inhibitory concentration (IC50) of 130 nM and an inhibition constant Ki of 58.5 nM. In assay [3], the half-inhibitory concentration (IC50) came out at 2.25 nM and the Ki is 1.5 nM.
